Results: patent US20010016568A1, “NOVEL METAL COMPLEXES” (priority 1997, published 2001)

T1: G-CSF/Fc fusion protein (Mus musculus, UniProt P40223)
T1 construct: which contained the extracellular domain of the receptor presented in a dimeric form due to the Fc component
T1 sequence (P40223 26-626 limits assumed): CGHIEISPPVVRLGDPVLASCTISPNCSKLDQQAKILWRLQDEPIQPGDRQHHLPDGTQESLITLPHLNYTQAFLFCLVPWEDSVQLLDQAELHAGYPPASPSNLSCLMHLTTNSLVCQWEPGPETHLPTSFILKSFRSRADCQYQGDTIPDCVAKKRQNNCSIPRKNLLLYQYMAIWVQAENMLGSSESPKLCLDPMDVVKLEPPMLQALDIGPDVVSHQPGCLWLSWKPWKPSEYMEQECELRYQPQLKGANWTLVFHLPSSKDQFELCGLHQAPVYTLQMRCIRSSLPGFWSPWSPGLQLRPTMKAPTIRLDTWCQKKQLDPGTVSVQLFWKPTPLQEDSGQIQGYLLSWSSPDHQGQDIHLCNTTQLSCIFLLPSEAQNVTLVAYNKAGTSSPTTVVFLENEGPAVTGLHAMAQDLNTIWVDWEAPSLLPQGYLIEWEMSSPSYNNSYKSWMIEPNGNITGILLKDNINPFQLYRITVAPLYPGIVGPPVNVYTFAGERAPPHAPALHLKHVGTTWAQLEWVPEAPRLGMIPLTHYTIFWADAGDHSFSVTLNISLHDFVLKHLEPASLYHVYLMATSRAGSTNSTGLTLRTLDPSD

T2: G-CSF receptor (Mus musculus, UniProt P40223)
T2 construct: they express endogenous G-CSF receptors; endogenous in cells; host or cells: NFS60 murine myeloid cells carrying a G-CSF-responsive luciferase reporter
T2 sequence (P40223 26-837): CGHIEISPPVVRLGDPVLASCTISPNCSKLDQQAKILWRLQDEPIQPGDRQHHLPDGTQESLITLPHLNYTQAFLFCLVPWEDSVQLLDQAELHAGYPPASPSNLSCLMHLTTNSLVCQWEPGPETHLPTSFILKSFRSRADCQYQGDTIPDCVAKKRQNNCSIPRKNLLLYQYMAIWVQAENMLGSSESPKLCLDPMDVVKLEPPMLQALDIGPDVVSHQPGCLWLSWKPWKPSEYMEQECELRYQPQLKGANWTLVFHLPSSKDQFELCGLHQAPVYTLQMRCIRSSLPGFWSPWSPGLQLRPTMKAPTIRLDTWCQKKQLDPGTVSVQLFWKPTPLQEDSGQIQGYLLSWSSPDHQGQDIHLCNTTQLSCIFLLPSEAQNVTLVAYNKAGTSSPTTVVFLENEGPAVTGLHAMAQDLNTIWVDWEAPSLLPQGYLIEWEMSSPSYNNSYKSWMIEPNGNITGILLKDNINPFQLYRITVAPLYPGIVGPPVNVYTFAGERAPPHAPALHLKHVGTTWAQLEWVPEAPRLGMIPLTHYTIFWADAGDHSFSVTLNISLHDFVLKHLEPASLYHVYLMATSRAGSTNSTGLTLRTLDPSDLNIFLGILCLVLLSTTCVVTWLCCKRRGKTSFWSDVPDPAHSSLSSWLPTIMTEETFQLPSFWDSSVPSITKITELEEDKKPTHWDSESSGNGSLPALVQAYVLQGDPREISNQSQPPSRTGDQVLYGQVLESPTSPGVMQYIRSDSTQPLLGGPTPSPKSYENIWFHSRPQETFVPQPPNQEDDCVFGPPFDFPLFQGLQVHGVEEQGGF

B1: recombinant G-CSF: the natural ligand (i.e. G-CSF or recombinant G-CSF) (protein, UniProt P09919 31-207, looked up)
Granulocyte …: TPLGPASSLPQSFLLKCLEQVRKIQGDGAALQEKLVSECATYKLCHPEELVLLGHSLGIPWAPLSSCPSQALQLAGCLSQLHSGLFLYQGLLQALEGISPELGPTLDTLQLDVADFATTIWQQMEELGMAPALQPTQGAMPAFASAFQRRAGGVLVASHLQSFLEVSYRVLRHLAQP

Key:
G-CSF/Fc fusion protein = target: T1, G-CSF/Fc fusion protein; test: Isothermal titration microcalorimetry; type: binding; conditions: only in the presence of zinc
Experimental: Zinc-mediated affinity of compounds from this invention for dimeric cell-surface receptors (specifically the G-CSF receptor) was measured by isothermal titration microcalorimetry experiments. Titration microcalorimetry detects binding as heat originating from the intrinsic bond forming enthalpy change. In this assay, the compounds were titrated first against zinc(II) alone. In a separate experiment, the compounds were then assayed in the presence of zinc and a dimeric cell-surface receptor/Fc fusion protein (a G-CSF/Fc fusion protein), which contained the extracellular domain of the receptor presented in a dimeric form due to the Fc component.

G-CSF receptor = target: T2, G-CSF receptor; test: Luciferase assay in the presence of EDTA (NFS60 cells); type: cell-based, murine
Experimental: FIG. 3 is an analysis of the effect of ethylenediaminetetraacetic acid (as used herein—EDTA) on the activity of Compound 1a (from Example 1) in NFS60 cells. Shown are luciferase response curves of Compound 1a at the indicated concentrations and in the presence of various concentrations of EDTA. […] The media in this assay contained a small amount (1-5 μM) of zinc(II).
FIGS. 7 and 8 show an analysis of the effect of metal chlorides on the EDTA depleted activity of Compound 1a on NFS60 cells. Shown are luciferase response curves as effected by the indicated metal chlorides. […] None of the other metals tested could overcome the inhibitory effect of EDTA.
In order to determine the requisiteness of zinc chelation of small organic molecules to agonist activity at dimeric cell-surface receptors, the above luciferase assay was performed on the G-CSF receptor in the presence of EDTA. EDTA is a strong metal chelator and had as its only effect, the removal of zinc from the ligand-receptor interaction.

Row | Molecule | affinity for the fusion protein construct (G-CSF/Fc fusion protein) | effect of metal chlorides on the EDTA depleted luciferase activity (G-CSF receptor; 50 micromolar EDTA, metal chlorides (zinc, manganese, iron, copper, cobalt)) | effect of EDTA on luciferase activity (G-CSF receptor; EDTA at 1.2 millimolar, media contained 1-5 μM zinc(II)) | agonist activity in the presence of EDTA (G-CSF receptor; FIG. 3) | effect of EDTA on luciferase activity (G-CSF receptor; EDTA at both 1.2 and 5 millimolar)
1 | c1ccc(C23NC(=Nc4nc5ccccc5[nH]4)NC2(c2ccccn2)NC(=Nc2nc4ccccc4[nH]2)N3)nc1 (stereo not drawn) [Compound 1a, 2,5-Bis[2-benzimidazolylimino]-3a,6a-bis(2-pyridyl)-1,2,3,3a,4,5,6,6a-octahydroimidazo[4,5-d]imidazole] | high, submicromolar affinity | Only zinc (II) at concentrations 0.5-10 micromolar can overcome the inhibition | antagonized | abrogated | –
2 | Cc1ccc2nc(N=C3NC4(c5ccccn5)NC(=Nc5nc6ccccc6[nH]5)NC4(c4ccccn4)N3)[nH]c2c1.O=C(O)C(F)(F)F.O=C(O)C(F)(F)F (stereo not drawn) [Compound 3a, 5-(2-benzimidazolylimino)-2-[(5-methyl-2-benzimidazolyl)imino]-3a,6a-bis(2-pyridyl)-1,2,3,3a,4,5,6,6a-octahydroimidazo[4,5-d]imidazole bis(trifluoroacetate) salt] | high, submicromolar affinity | – | – | – | –
3 | B1 | – | – | – | – | little effect
